Test system: AMPK
Assay: AMPK activation (pT172-AMPK immunoassay) in C2C12 myocytes
Format: cell-based, mouse
Conditions: 1 mM AICAR, 30 min, average over ten independent assays, 95% CI=1.26-2.21
Experimental: The Model—The C2C12 myocyte model is commonly used to study the potential effects of compounds on muscle tissue in vitro.
Cell culture—Mouse C2C12 myoblasts were obtained from American Type Culture Collection (Manassas, Va.), and were maintained in Dulbecco's modified Eagle's medium (DMEM) supplemented with 10% fetal bovine serum at 37° C. under a humidified atmosphere of 5% CO2.
C2C12 cells were seeded at an initial density of 6×10^4 cells/cm^2 in 24-well plates. For two days, the cells were allowed grow to reach confluence. Following confluence, the cells were forced to differentiate into myocytes by culturing in DMEM supplemented with 2% horse serum for seven days.
Treatment with AICAR—On Day 8 to 10 post differentiation, C2C12 myocytes were incubated in serum-free DMEM plus 0.5% BSA (bovine serum albumin) for three hours. Next, AICAR (Cell Signal, Danvers, Mass.) was dissolved in phosphate buffered saline (PBS) and added to the culture medium to achieve concentrations of 1 mM per column (4 replicates) for 30 min at 37° C.
Measuring activated AMPKα—pT^172-AMPK was quantified using the Biosource AMPKa Immunoassay Kit (Camarillo, Calif.) without modification. Protein content of the cell lysates was determined with the Active Motif fluorescent protein assay reagent (Carlsbad Calif., Hoefelschweiger, B. K., Duerkop, A., and Wolfbeis, O, S, Novel type of general protein assay using a chromogenic and fluorogenic amine-reactive probe. Anal Biochem 2005, 344, 122-9). A Packard Fluorocount spectrofluorometer (Model#BF10000, Meridan, Conn.) was used for protein determination and a MEL312e BIO-KINETICS READER (Bio-Tek Instruments, Winooski, Vt.) was used for quantification of pT^172-AMPK.
Calculation of relative activation of AMPK —pT^172-AMPK was computed per mg lysate protein and then normalized to the dimethyl sulfoxide (DMSO) negative controls. For statistical comparisons, 95% confidence intervals were computed (Excel, Microsoft, Redman, Wash.).
The Model—The C2C12 murine myocyte model as described in Example 1 was used.
Chemicals, Cell Culture and Treatment—Chemicals, cell culture procedures, methods and statistical procedures used were as noted in Example 1.
Test Materials—Phytochemicals or botanical extracts as described in Table 1 were used as the test materials and dosed at 25 μglmL. The concentration for the positive control AICAR run concurrently was 1.0 mM (338 μg/mL).
The Model—The C2C12 murine myocyte model as described in Example 1 was used in this example.
Test Materials—Botanical extracts Ginger Extract (Suan Farma, Hackensack, N.J.), Ginger Root Powder (BI Nutraceuticals, Long Beach, Calif.), and Ginger Powdered Extract 6:1, Zingiber officinale (Draco, San Jose, Calif.) were used as the test materials and dosed at 25 μg/mL. The concentration for the positive control AICAR was 1.0 mM (338 μg/mL).

Compound	increase of pT172-AMPK relative to the DMSO negative controls [fold]
NC(=O)c1ncn([C@@H]2O[C@H](CO)[C@@H](O)[C@H]2O)c1N [AICAR, 5-Aminoimidazole-4-carboxamide ribonucleoside, reference compound]	1.67

Same assay, conditions: test material 25 μg/mL, pT172-AMPK per mg lysate protein normalized to DMSO negative controls

Compound	pAMPK/AMPK.
Chromium polynicotinate	1.59
CNCC(O)c1ccc(O)cc1 (stereo not drawn) [Synephrine]	2.64
COc1cc(O)c(CC=C(C)C)c(O)c1C(=O)/C=C/c1ccc(O)cc1 [Xanthohumol]	1.55
COc1ccc2cc3[n+](cc2c1OC)CCc1cc2c(cc1-3)OCO2 [Berberine]	1.26
CC(C)C[C@H](N)C(=O)O [L-Leucine]	1.29
CCCCC[C@H](O)CC(=O)CCc1ccc(O)c(OC)c1 [6-Gingerol]	3.52
Oc1ccc(C=Cc2cc(O)cc(O)c2)cc1 [Resveratrol]	1.25
CC(C)=CCC1=C(O)C(C(=O)CC(C)C)=C(O)C(CC=C(C)C)(CC=C(C)C)C1=O [Lupulone]	1.63
